Read-outs that look alike come from different tables or passages of the source.
Assays:
[1] = molecular target: T1, acid phosphatase derived from Morganella morganii (Morganella morganii, UniProt P28581); assay type: biochemical
T1 construct: homo-oligomer of about 25 kDa subunits; 20-residue signal peptide removed
T1 sequence (P28581 21-249): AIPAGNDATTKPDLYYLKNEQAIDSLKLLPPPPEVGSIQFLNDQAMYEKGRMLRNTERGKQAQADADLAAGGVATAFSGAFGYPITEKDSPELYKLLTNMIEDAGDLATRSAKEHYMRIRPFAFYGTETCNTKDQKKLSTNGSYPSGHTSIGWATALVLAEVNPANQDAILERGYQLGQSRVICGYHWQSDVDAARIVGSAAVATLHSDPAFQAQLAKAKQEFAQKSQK

[2] = molecular target: T2, acid phosphatase derived from Escherichia blattae (Shimwellia blattae, UniProt I2BB71); assay type: biochemical, Escherichia blattae JCM 1650
T2 construct: homo-oligomer; 18-residue signal peptide removed
T2 sequence (I2BB71 19-249): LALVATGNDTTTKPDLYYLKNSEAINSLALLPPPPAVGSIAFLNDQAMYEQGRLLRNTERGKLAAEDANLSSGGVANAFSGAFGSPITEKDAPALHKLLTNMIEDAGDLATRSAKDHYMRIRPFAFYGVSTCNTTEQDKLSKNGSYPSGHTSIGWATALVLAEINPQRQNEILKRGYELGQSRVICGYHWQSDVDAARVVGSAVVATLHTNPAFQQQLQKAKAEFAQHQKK

[3] = molecular target: T3, acid phosphatase sample derived from Escherichia blattae (Shimwellia blattae, UniProt I2BB71); experiment: Phosphorylation reaction of various nucleosides by acid phosphatase sample; assay type: biochemical, Escherichia blattae JCM 1650; conditions: sodium pyrophosphate 15 g/dl, enzyme 50 units/dl, 3 hours; for Produced amount of nucleoside-5'-ester: nucleoside 3 g/dl, pH 4.0, 35° C.
T3 construct: homo-oligomer; signal peptide removed
Method: (§1) Incidentally, in the reaction to produce nucleoside-5'-phosphate esters using nucleosides other than inosine as raw materials, the nucleosides as raw materials and produced nucleoside-5'-phosphate esters were analyzed by HPLC as described above.
(§2) Sodium pyrophosphate (15 g/dl) and inosine (3 g/dl) were dissolved in sodium acetate buffers each having pH of 5.5, 5.0, 4.5, 4.0, and 3.5, to which the enzyme sample described above was added so that a concentration of 50 units/dl was obtained. […] Produced inosinic acid contained only 5'-inosinic acid. By-production of 2'-inosinic acid and 3'-inosinic acid was not observed at all. The velocity of 5'-inosinic acid production was maximum at pH 5.0. However, the maximum accumulated amount of 5'-inosinic acid was higher at lower pH. The reaction condition at pH 4.0 was most efficient for production of 5'-inosinic acid. 5'-Inosinic acid was produced and accumulated in an amount of 1.56 g/dl by performing the reaction at 30° C. at pH 4.0 for 3 hours.
The reaction mixture was incubated at 35° C. for 3 hours while maintaining pH at 4.0.

[4] = system: Escherichia coli JM109/pEPI330; experiment: Production of various nucleoside-5'-phosphate esters by microbial cells of the mutant strain; assay type: cell-based; conditions: sodium pyrophosphate 12 g/dl, nucleoside 6 g/dl, cells 200 mg/dl dry weight, pH 4.0, 35° C., 32 hours
Excerpt: (§3) Produced nucleotide contained only nucleoside-5'-phosphate ester. By-production of nucleoside-2'-phosphate ester and nucleoside-3'-phosphate ester was not observed at all.

[5] = system: Escherichia coli JM109/pMPI530; experiment: as above; assay type: cell-based; conditions: sodium pyrophosphate 12 g/dl, nucleoside 6 g/dl, cells 100 mg/dl dry weight, pH 4.0, 30° C., 22 hours
Excerpt: as §3

[6] = molecular target: T4, acid phosphatase sample derived from Morganella morganii (Morganella morganii, UniProt P28581); experiment: Phosphorylation reaction of various nucleosides by acid phosphatase sample; assay type: biochemical, Morganella morganii NCIMB 10466; conditions: sodium pyrophosphate 10 g/dl, nucleoside 2 g/dl, enzyme 50 units/dl, pH 4.0, 30° C., 3 hours
T4 construct: homo-oligomer; signal peptide removed
Method: as §1
as §2, with “(10” for “(15”, “(2” for “(3”, “acid, in which 5'-inosinic” for “acid. 5'-Inosinic”, “2.60” for “1.56”, “reaction” for “reaction at 30° C. at pH 4.0”
(§4) The reaction mixture was incubated at 30° C. for 3 hours while maintaining pH at 4.0.

[7] = molecular target: T3, acid phosphatase sample derived from Escherichia blattae; experiment: Production of 5'-inosinic acid from various phosphate group donors by acid phosphatase sample; assay type: biochemical, Escherichia blattae JCM 1650; conditions: inosine 2 g/dl, phosphate group donor 10 g/dl, enzyme 50 units/dl, pH 4.0, 35° C., 3 hours
Method: The reaction miture was incubated at 35° C. for 3 hours while maintaining pH at 4.0.

[8] = system: Escherichia coli JM109/pEPI330; experiment: Production of 5'-inosinic acid from various phosphate group donors by microbial cells of the mutant strain; assay type: cell-based; conditions: inosine 6 g/dl, phosphate group donor 12 g/dl, cells 200 mg/dl dry weight, pH 4.0, 35° C., 32 hours
Excerpt: (§5) 5'-Inosinic acid was efficiently produced and accumulated by using any of the phosphate group donors. However, the accumulated amount of 5'-inosinic acid was the highest when polyphosphoric acid was used as the phosphate group donor.

[9] = system: Escherichia coli JM109/pMPI530; experiment: as above; assay type: cell-based; conditions: inosine 6 g/dl, phosphate group donor 10 g/dl, cells 100 mg/dl dry weight, buffer pH 4.5, pH maintained at 4.0, 30° C., 22 hours
Excerpt: as §5

[10] = molecular target: T4, acid phosphatase sample derived from Morganella morganii; experiment: Production of 5'-inosinic acid from various phosphate group donors by acid phosphatase sample; assay type: biochemical, Morganella morganii NCIMB 10466; conditions: inosine 2 g/dl, phosphate group donor 10 g/dl, enzyme 50 units/dl, pH 4.0, 30° C., 3 hours
Method: as §4

[11] = Properties of the purified acid phosphatase derived from Morganella morganii; design: species or system Morganella morganii NCIMB 10466
Method: A nutrient medium (pH 7.0, 50 ml) containing 1 g/dl of peptone, 0.5 g/dl of yeast extract, and 1 g/dl of sodium chloride was poured into Sakaguchi flasks (500 ml), which was sterilized at 120° C. for 20 minutes. A slant culture of Morganella morganii NCIMB 10466 was inoculated to each of the flasks once with a platinum loop, which was cultivated at 30° C. for 16 hours with shaking. Microbial cells (about 3,000 g), which were harvested from a culture by centrifugation, were suspended in 100 mM potassium phosphate buffer (1 L, pH 7.0). A ultrasonic treatment was performed at 4° C. for 20 minutes to disrupt the microbial cells. The treated suspension was centrifuged to remove its insoluble fraction. Thus a cell-free extract was prepared.
The purified enzyme had the following properties.

[12] = Phosphomonoesterase activity (inosine produced by hydrolysis of 5'-inosinic acid); assay type: biochemical; conditions: purified Morganella morganii enzyme
Method: The phosphomonoesterase activity was measured under the following condition using 5'-inosinic acid as a substrate. The reaction was performed at 30° C. for 10 minutes in a reaction solution (1 ml) containing 10 μmol/ml of 5'-inosinic acid, 100 μmol/ml of MES/NaOH buffer (pH 6.0), and an enzyme. The reaction was stopped by adding 200 μl of 2 N hydrochloric acid. After that, precipitates were removed by centrifugation. Then, inosine produced by the hydrolytic reaction was quantitatively measured. An amount of enzyme to produce 1 μmol of inosine per 1 minute under this standard reaction condition was defined as 1 unit.
Inosine and 5'-inosinic acid were analyzed under the following condition by means of high-performance liquid chromatography (HPLC).

[13] = purified Morganella morganii enzyme
[14] = purified Escherichia blattae enzyme

[Ag+2] [Ag^2+]
Effect of the addition of metal ion and inhibitor on enzyme activity [1, 13]: inhibited
Effect of the addition of metal ion and inhibitor on enzyme activity [2, 14]: inhibited

[Cu+2] [Cu^2+]
Effect of the addition of metal ion and inhibitor on enzyme activity [1, 13]: inhibited
Effect of the addition of metal ion and inhibitor on enzyme activity [2, 14]: inhibited

Nc1ccn([C@@H]2O[C@H](CO)[C@@H](O)[C@H]2O)c(=O)n1 [Cytidine, cytidine]
Produced amount of nucleoside-5'-ester [3]: 1.22 g/dL
Produced amount of nucleoside-5'-phosphate ester [4]: 6.60 g/dL
Produced amount of nucleoside-5'-phosphate ester [5]: 7.82 g/dL
Produced amount of nucleoside-5'-ester [6]: 0.98 g/dL

NC(=O)OP(=O)([O-])[O-].[Na+].[Na+] [Disodium carbamyl phosphate, disodium carbamyl phosphate]
Produced 5'-inosinic acid [7]: 1.53 g/dL
Produced 5'-inosinic acid [8]: 7.73 g/dL
Produced 5'-inosinic acid [9]: 9.89 g/dL
Produced 5'-inosinic acid [10]: 2.54 g/dL

O=P([O-])([O-])Oc1ccccc1.[Na+].[Na+] [Disodium phenylphosphate, disodium phenylphosphate]
Produced 5'-inosinic acid [7]: 1.50 g/dL
Produced 5'-inosinic acid [8]: 7.60 g/dL
Produced 5'-inosinic acid [9]: 9.62 g/dL
Produced 5'-inosinic acid [10]: 2.33 g/dL

[Fe+2] [Fe^2+]
Effect of the addition of metal ion and inhibitor on enzyme activity [2, 14]: inhibited

Nc1nc2c(ncn2[C@@H]2O[C@H](CO)[C@@H](O)[C@H]2O)c(=O)[nH]1 [Guanosine, guanosine]
Produced amount of nucleoside-5'-ester [3]: 1.05 g/dL
Produced amount of nucleoside-5'-phosphate ester [4]: 4.77 g/dL
Produced amount of nucleoside-5'-phosphate ester [5]: 6.72 g/dL
Produced amount of nucleoside-5'-ester [6]: 1.90 g/dL

[Hg+2] [Hg^2+]
Effect of the addition of metal ion and inhibitor on enzyme activity [1, 13]: inhibited
Effect of the addition of metal ion and inhibitor on enzyme activity [2, 14]: inhibited

OC[C@H]1O[C@@H](n2cnc3c(O)ncnc32)[C@H](O)[C@@H]1O [Inosine, inosine]
5'-inosinic acid produced and accumulated ([3]; inosine 3 g/dl, pH 4.0, 30° C.): 1.56 g/dL
Produced amount of nucleoside-5'-ester [3]: 1.56 g/dL
Produced amount of nucleoside-5'-phosphate ester [4]: 7.45 g/dL
Produced amount of nucleoside-5'-phosphate ester [5]: 10.01 g/dL
Produced amount of nucleoside-5'-ester [6]: 2.60 g/dL

[Pb+2] [Pb^2+]
Effect of the addition of metal ion and inhibitor on enzyme activity [1, 13]: inhibited
Effect of the addition of metal ion and inhibitor on enzyme activity [2, 14]: inhibited

O=P(O)(O)OP(=O)(O)OP(=O)(O)O [Sodium tripolyphosphate, sodium tripolyphosphate]
Produced 5'-inosinic acid [7]: 1.20 g/dL
Produced 5'-inosinic acid [8]: 5.96 g/dL
Produced 5'-inosinic acid [9]: 8.93 g/dL
Produced 5'-inosinic acid [10]: 2.10 g/dL

O=c1ccn([C@@H]2O[C@H](CO)[C@@H](O)[C@H]2O)c(=O)[nH]1 [Uridine, uridine]
Produced amount of nucleoside-5'-ester [3]: 1.87 g/dL
Produced amount of nucleoside-5'-phosphate ester [4]: 8.93 g/dL
Produced amount of nucleoside-5'-phosphate ester [5]: 11.90 g/dL
Produced amount of nucleoside-5'-ester [6]: 1.30 g/dL

O=C(O)CI [iodoacetic acid]
Effect of the addition of metal ion and inhibitor on enzyme activity [1]: inhibited
Effect of the addition of metal ion and inhibitor on enzyme activity [2]: inhibited

sodium polyphosphate
Produced 5'-inosinic acid [7]: 1.79 g/dL
Produced 5'-inosinic acid [8]: 8.84 g/dL
Produced 5'-inosinic acid [9]: 11.45 g/dL
Produced 5'-inosinic acid [10]: 2.72 g/dL

B1: acid phosphatase derived from Morganella morganii: enzyme purified from cell-free extract of Morganella morganii NCIMB 10466; mature protein SEQ ID NO: 4 (protein)
chain: T1 sequence (P28581 21-249)
Optimum temperature [11]: about 35 °C
Optimum pH ([11]; phosphate ester hydrolytic reaction): 6.5
Optimum pH ([11]; transphosphorylation reaction): 5.2
Temperature stability ([11]; treatment at pH 7.0 for 30 minutes): up to 30 °C
phosphate ester hydrolytic activity (phosphomonoestrase activity) relative to transphosphorylation activity [12]: not less than 20 times
